Laboratory results: PubChem BioAssay AID550 (SRMLSC, 2006)
Calls of active or inactive are those of the source.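 How the source made its calls: active means clearly stronger inhibition of the target decarboxylase than of the coupling enzymes tested in parallel without it; inactive means the rest.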

The compounds below were run against diphosphomevalonate decarboxylase (Streptococcus pneumoniae D39) (assay: S. pneumoniae DPM-DC inhibitor potency, dose response, biochemical, PK/LDH-coupled NADH fluorescence, hexokinase coupling counter-screen (AID 550)). Conditions: purified DPM-DC.
With `COc1cc2c(cc1OC)/C(=C/C(=O)N1CCOCC1)NC(C)(C)C2` the IC50 was 38.8 µM.
`CCN(CCNC(=O)C1CCN(c2nnc(-n3cccc3)s2)CC1)c1ccccc1` was tested, and the outcome was “inactive”.
For `CCOc1ccc(N(CC(=O)Nc2ccc(F)c(F)c2)S(=O)(=O)c2c(C)noc2C)cc1`, the outcome was “inactive”.
With `O=C1CC(c2cccnc2)c2cc3c(cc2N1)OCO3` (stereo unspecified) the outcome was “inactive”.
`CCOC(=O)CSc1cc(=O)n(C)c2cc(Cl)ccc12` was tested, and the outcome was “inactive”.
With `Cn1c(=O)[nH]c(=O)c2c1nc(NC1CCCCC1)n2Cc1ccccc1` the outcome was “inactive”.
With `Cc1cc(N2CCN(C3CCCC3)CC2)n2nc(C)c(-c3ccccc3)c2n1` the outcome was “inactive”.
For `COc1ccccc1NC(=O)C1=C(C)NC2=C(C(=O)CCC2)C1c1ccc2c(c1)OCO2` (stereo unspecified), the IC50 was 76.3 µM.
With `CC(C)(C)CC(=O)Nc1nnc(-c2cccs2)s1` the outcome was “inactive”.
With `Cc1nc2nc(C)c(CCC(=O)N3CCOCC3)c(C)n2n1` the outcome was “inactive”.
`O=C(NCc1cccnc1)c1ccc2c(=O)n(CCCN3CCCC3=O)c(=S)[nH]c2c1` was tested, and the outcome was “inactive”.
In the case of `CCOC(=O)c1c(Nc2nc(C)c(C(=O)NC)s2)sc(C)c1C`, the outcome is reported as “inactive”.
For `Cc1cc(C)c(S(=O)(=O)NCc2cn3c(C)csc3n2)cc1C`, the outcome was “inactive”.
In the case of `CCc1c(C)c(C#N)c2nc3ccccc3n2c1Nc1c(C)n(C)n(-c2ccccc2)c1=O`, the outcome is reported as “inactive”.
With `COc1cc(C2C(C#N)=C(C)NC3=C2C(=O)CC(C)(C)C3)cc(OC)c1O` (stereo unspecified) the outcome was “inactive”.
`COc1cc2c(C#N)c(N3CCN(c4ccccc4OC)CC3)nc(N)c2c(N)n1` was tested, and the outcome was “inactive”.
With `O=c1[nH]c(-c2ccncc2)nc2ccccc12` the outcome was “inactive”.
With `CCc1cc(/C(Cc2ccc3ccccc3n2)=N\O)c(O)cc1O` the outcome was “inactive”.
For `CCN(CC)CCOC(=O)c1ccc(N=CC2=C(O)CC(C)(C)CC2=O)cc1`, the outcome was “inactive”.
`N#CC(C(=O)NC1CCCCC1)c1nc2ccccc2nc1N1CCCCC1` (stereo unspecified) was tested, and the outcome was “inactive”.
With `COc1ccc(-c2cc(C(F)(F)F)nc(SCCC(=O)Nc3cc(C)on3)n2)cc1` the outcome was “inactive”.
For `CC(O)COc1ccc(/C(=N/O)c2ccccc2)cc1` (stereo unspecified), the outcome was “inactive”.
With `Cc1occc1C(=O)Nc1nnc(C(F)(F)F)s1` the outcome was “inactive”.
`COc1ccccc1CNc1ncnc2nc[nH]c12` was tested, and the outcome was “inactive”.
`CC(=O)Nc1cccc(NC(=O)CSc2nnnn2Cc2ccccc2)c1` was tested, and the outcome was “inactive”.
`COc1cc(C(=O)Nc2ccc3c(c2)OCO3)ccc1-n1cnnn1` was tested, and the outcome was “inactive”.
For `O=C(CCc1nc(-c2ccccc2F)no1)NCCN1CCc2ccccc2C1`, the outcome was “inactive”.
In the case of `Cn1c(=NC(=O)c2ccco2)sc2cccc(F)c21`, the outcome is reported as “inactive”.
For `COC(=O)Cn1c(=NC(=O)CSC(C)=O)sc2ccccc21`, the outcome was “inactive”.
For `COc1ccccc1NC(=O)CSc1nc(O)cc(=O)n1-c1ccccc1OC`, the outcome was “inactive”.
`CC1Cc2nc(SCC(=O)Nc3ccc4c(c3)OCO4)n(CCc3ccccc3)c(=O)c2S1` (stereo unspecified) was tested, and the outcome was “inactive”.
In the case of `c1ccc(N2CCN(c3cnccn3)CC2)nc1`, the outcome is reported as “inactive”.
For `CN(C)CCSc1nnc(-c2ccccc2)o1`, the outcome was “inactive”.
With `C/C=C/Cn1c(N(C)Cc2ccccc2)nc2c1c(=O)[nH]c(=O)n2C` the outcome was “inactive”.
In the case of `CCOC(=O)C(Cc1ccccc1)C(=O)Nc1nccs1` (stereo unspecified), the outcome is reported as “inactive”.
In the case of `COC(=O)c1cc(OC)c(OC)cc1NC(=O)c1oc2ccccc2c1C`, the outcome is reported as “inactive”.
For `CCOc1ncccc1C(=O)Nc1ccc2c(C)cc(=O)oc2c1`, the outcome was “inactive”.
For `Cc1cc(=O)[nH]c(/N=C(\N)Nc2cccc3ccccc23)n1`, the outcome was “inactive”.
In the case of `CCOC(=O)c1c(C)n(OCc2ccccc2)c2ccc3c(no[n+]3[O-])c12`, the outcome is reported as “inactive”.
With `Cc1cccc2cc(CN(Cc3ccco3)S(=O)(=O)c3ccc4c(c3)OCCO4)c(=O)[nH]c12` the outcome was “inactive”.
For `c1ccc(-c2nc3nonc3c3nc4ccccc4n23)cc1`, the outcome was “inactive”.
`Cc1cc(=O)oc2cc(OC(C)C(=O)O)c(Cl)cc12` (stereo unspecified) was tested, and the outcome was “inactive”.
With `C=C(C)Cn1c(COc2ccccc2)nnc1SCC(=O)O` the outcome was “inactive”.
`O=C1NC(=O)C(CC(=O)N(c2ccccc2)C2(C(=O)NC3CCCC3)CCCCC2)N1` (stereo unspecified) was tested, and the outcome was “inactive”.
With `Cc1cc(=O)cc(C)[nH]1` the outcome was “inactive”.
With `Cc1cccc(C)c1NC(=O)C(c1ccccc1)N1CCN(C(=O)c2ccco2)CC1` (stereo unspecified) the outcome was “inactive”.
For `O=P1(NC2CCCC2)COc2ccccc2OC1`, the outcome was “inactive”.
`CCCc1nnc(NC(=O)CN2CCOCC2)s1` was tested, and the outcome was “inactive”.
In the case of `COc1ccc(C2C3=C(OC(C)=O)c4ccccc4C3=Nc3c2c(=O)n(C)c(=O)n3C)cc1` (stereo unspecified), the outcome is reported as “inactive”.
With `Nc1nc(N)c2sc3nc4c(cc3c2n1)CCC4` the outcome was “inactive”.
`Cn1c(-c2ccc(N)cc2)nc2ccccc21` was tested, and the outcome was “inactive”.
`O=C(c1noc2c1CCCC2)N1CCCCC1` was tested, and the outcome was “inactive”.
In the case of `Cc1ccc(-n2c(SCC(=O)NCc3ccco3)nnc2-c2cccnc2)c(C)c1`, the outcome is reported as “inactive”.
With `O=C(Nc1ccc(N2CCCCC2)cc1)c1cccnc1` the outcome was “inactive”.
With `CC1CC(C)CN(CCCNC(=O)Cn2ncc3c(=O)oc4ccccc4c32)C1` (stereo unspecified) the outcome was “inactive”.
In the case of `O=S(=O)(Nc1ccc(C(F)(F)F)cc1)c1cnc[nH]1`, the outcome is reported as “inactive”.
`O/N=C1\CCC\C1=C/c1ccco1` was tested, and the outcome was “inactive”.
With `CCN(CC)CCCN(Cc1cc2cc3c(cc2[nH]c1=O)OCCO3)C(=O)Nc1ccccc1` the outcome was “inactive”.
With `S=c1[nH]nc(-c2ccccc2)n1C1C=CCCC1` (stereo unspecified) the outcome was “inactive”.
In the case of `Cc1cccc(OCC(O)Cn2c(-n3nc(C)cc3C)nc3c2c(=O)[nH]c(=O)n3C)c1` (stereo unspecified), the outcome is reported as “inactive”.
For `Cc1noc(C)c1CSc1nc2ccccc2s1`, the outcome was “inactive”.
With `CCOC(=O)c1cc2c(=O)n(C)c3ccccc3c2s1` the outcome was “inactive”.
With `Cc1ccc2oc(=O)c3cnn(CC(=O)NC4CCN(Cc5ccccc5)CC4)c3c2c1` the outcome was “inactive”.
For `CCc1ccc(S(=O)(=O)NCc2cn3ccsc3n2)s1`, the outcome was “inactive”.
For `Cc1nc2oc3c(NCc4ccccn4)ncnc3c2c2c1COC(C)(C)C2`, the outcome was “inactive”.
With `Cc1cc(=O)[nH]c2ccccc12` the outcome was “inactive”.
In the case of `CCCN(CC(=O)c1cc(C)n(C)c1C)S(=O)(=O)c1cccc(C(F)(F)F)c1`, the outcome is reported as “inactive”.
For `CN1CC(=O)NC1=NC(=O)C12CC3CC(CC(C3)C1)C2`, the outcome was “inactive”.
For `CN(C)S(=O)(=O)c1cccc(C(=O)C2=C3SC=C(c4ccccc4)N3CC2)c1`, the outcome was “inactive”.
`OCCNc1ncnc2c1c(-c1ccccc1)c(-c1ccccc1)n2Cc1ccco1` was tested, and the outcome was “inactive”.
In the case of `CCn1c(SCC(=O)Nc2cccc(C(C)=O)c2)nnc1C(C)C`, the outcome is reported as “inactive”.
For `Cc1c(C(=O)OCC(C)(C)CN(C)C)oc2ccccc12`, the outcome was “inactive”.
`Cn1c(SCC(=O)N2CCOCC2)nnc1-c1ccc(NC(=O)c2ccccc2F)cc1` was tested, and the outcome was “inactive”.
For `COc1cccc(C(=O)Nc2ccc(NC(=O)C(C)C)nc2)c1`, the outcome was “inactive”.
With `Cc1cc(O)c(C=Nc2cccc(Cl)c2)c(=O)o1` the outcome was “inactive”.
For `Cc1ccc(S(=O)(=O)N2CCOCC(=O)NCCOCCNC(=O)COCC2)cc1`, the outcome was “inactive”.
For `CCC(=O)Nc1nnc(Sc2ccc(N(C)C)cc2)s1`, the outcome was “inactive”.
`CCOc1ccc(N2CC(C(=O)OC)CC2=O)cc1` (stereo unspecified) was tested, and the outcome was “inactive”.
For `CCOC(=O)c1c(CC(C)C)csc1NC=O`, the outcome was “inactive”.
`CCc1ccc(NC(=O)c2cnc3scc(C)n3c2=O)cc1` was tested, and the outcome was “inactive”.
With `CN(C)C(=O)N1CCC(C(=O)NCc2cccs2)CC1` the outcome was “inactive”.
In the case of `CCc1ccc(CCC(=O)Nc2ccc(C)c(C)c2)o1`, the outcome is reported as “inactive”.
`CSc1ncc(Cl)c(C(=O)Nc2nnc(SC)s2)n1` was tested, and the outcome was “inactive”.
In the case of `CC(C)CC(=O)NCC(C)NC(=O)CC(C)C` (stereo unspecified), the outcome is reported as “inactive”.
In the case of `O=C(O)CCn1nnc(-c2cccs2)n1`, the outcome is reported as “inactive”.
For `Cc1ccc(C2C3CN(C(C)C)CC=C3C(C#N)=C(N)C2(C#N)C#N)cc1` (stereo unspecified), the IC50 was 39.6 µM.
In the case of `COc1cccc2cc3c(=O)n(-c4ccccc4)nc-3oc12`, the outcome is reported as “inactive”.
With `Cc1nc2cc(NC(=O)NCc3ccco3)ccc2n1C` the outcome was “inactive”.
`CCOC(=O)c1[nH]c2ccc(OC)cc2c1NC(=O)CN1CCN(c2ccccn2)CC1` was tested, and the outcome was “inactive”.
For `COCCNC(=O)c1cnn2c(C(F)(F)F)cc(-c3ccc4c(c3)OCO4)nc12`, the outcome was “inactive”.
With `Cc1cc(N2CCN(C(=O)c3ccco3)CC2)n2nc(-c3cccc(Cl)c3)cc2n1` the outcome was “inactive”.
`Cc1c(C(=O)NCc2ccc3c(c2)OCO3)sc2nc(-c3ccccc3)cn12` was tested, and the outcome was “inactive”.
With `CC(=O)c1cccc(NC(=O)Nc2cccnc2)c1` the outcome was “inactive”.
In the case of `CCN(CC)c1nc2ccccc2n2cnnc12`, the outcome is reported as “inactive”.
For `COc1ccc(C2CC(c3cccc(C)c3)n3nc(N)nc3N2)cc1` (stereo unspecified), the outcome was “inactive”.
For `O=C(c1ccc(F)cc1)N1CCC(N2CCCCCC2)CC1`, the outcome was “inactive”.
With `Cc1cc(C(=O)CSc2nnnn2-c2ccc(Cl)cc2)c(C)n1CC1CCCO1` (stereo unspecified) the outcome was “inactive”.
In the case of `CCCn1c(=O)c2ccccc2n2c(SCC(=O)/C(C#N)=C(\C)N)nnc12`, the outcome is reported as “inactive”.
For `Cc1cc(N2CCOCC2)c2c(N)c(Br)cc(C)c2n1`, the outcome was “inactive”.
In the case of `O=C(C1CCCCC1)N1CCC(c2nc3c(nnn3Cc3ccccc3Cl)c(=O)[nH]2)CC1`, the outcome is reported as “inactive”.
In the case of `Cc1ccc(S(=O)(=O)NCCN2CCOCC2)cc1C`, the outcome is reported as “inactive”.
`CCOc1ccc(C(=O)O)cc1OC` was tested, and the outcome was “inactive”.
`CCOc1cc(NC(=O)c2ccco2)c(OCC)cc1NC(=O)CCc1ccc(OC)cc1` was tested, and the outcome was “inactive”.
`CC(NC(=O)c1cccc(N2CCCC2=O)c1)c1ccc2c(c1)OCCO2` (stereo unspecified) was tested, and the outcome was “inactive”.
`CCCCCn1c(SCC#N)nc2cc(C(=O)NCC3CCCO3)ccc2c1=O` (stereo unspecified) was tested, and the outcome was “inactive”.
For `Cc1cnc(SCCc2ccncc2)nc1C`, the outcome was “inactive”.
In the case of `CCCOC(=O)Cc1n[nH]c(=O)[nH]c1=O`, the outcome is reported as “inactive”.
`Cc1ccc(OCCn2c(C)c(/C=N/n3cnnc3)c3ccccc32)cc1` was tested, and the outcome was “inactive”.
For `Cc1ccsc1C1C(C(=O)O)c2ccccc2C(=O)N1C` (stereo unspecified), the outcome was “inactive”.
With `CCOc1nc(-c2ccccc2)ccc1-c1noc(-c2ccc(OC)c(OC)c2)n1` the outcome was “inactive”.
In the case of `Cc1c(C(=O)NC2CC2)oc2ccc(S(=O)(=O)N3CCCCCC3)cc12`, the outcome is reported as “inactive”.
